Legend:
Format in all cases: cell-based
CEM = assay: MTT cytotoxicity screening assay, CEM; settings: CCRF-CEM, human T-lymphoblastic leukemia, 72 hours, read-out: TCS50
Excerpt: (§1) One of the parameters used as the basis for colorimetric assays is the metabolic activity of viable cells. For example, a microtiter assay which uses the tetrazolium salt MTT is now widely used to quantitate cell proliferation and cytotoxicity [Hajduch M, Mihal V, Minarik J, Fáber E, ? afárová M, Weigl E, Antálek P.: Cytotechnology, 1996,19,243-245]. For instance, this assay is used in drug screening programs and in chemosensitivity testing. Because tetrazolium salts are cleaved only by metabolically active cells, these assays exclusively detect viable cells. In the case of the MTT assay, yellow soluble tetrazolium salt is reduced to a coloured water-insoluble formazan salt. After it is solubilized, the formazan formed can easily and rapidly be quantified in a conventional ELISA plate reader at 570 nm (maximum absorbancy). The quantity of reduced formazan corresponds to the number of vital cells in the culture.
Human T-lymphoblastic leukaemia cell line CEM was used for routine screening of these compounds. […] The cells were maintained in Nunc/Coming 80 cm^2 plastic tissue culture flasks and cultured in cell culture medium (DMEM with 5 g/l glucose, 2mM glutamine, 100 U/ml penicillin, 100 µg/ml streptomycin, 10% foetal calf serum and sodium bicarbonate). Individual compounds were dissolved in 10% dimethylsulfoxide/saline, pH 8.0.
The cell suspensions that were prepared and diluted according to the particular cell type and the expected target cell density (2.500-30.000 cells per well based on cell growth characteristics) were added by pipette (80 µl) into 96/well microtiter plates. Inoculates were allowed a pre-incubation period of 24 hours at 37°C and 5% CO2 for stabilisation. Four-fold dilutions of the intended test concentration were added at time zero in 20 µl aliquots to the microtiter plate wells. Usually, test compounds were evaluated at six 4-fold dilutions. In routine testing, the highest well concentration was 250 µM, but it may differ, depending on the agent. All drug concentrations were examined in duplicate. Incubations of cells with the test compounds lasted for 72 hours at 37°C, in 5% CO2 atmosphere and 100% humidity. At the end of the incubation period, the cells were assayed by using the MTT assay. Ten microliters of the MTT stock solution were pipetted into each well and incubated further for 1-4 hours. […] The optical density (OD) was measured at 540nm with the Labsystem iEMS Reader MF (UK). The tumour cell survival (TCS) was calculated using the following equitation: TCS= (ODdrug exposed well /mean ODcontrol wells) x 100%. The TCS50 value, the drug concentration lethal to 50% of the tumour cells, was calculated from the obtained dose response curves. […]

B16 = assay: MTT cytotoxicity assay, B16; settings: B16, mouse melanoma, 72 hours, read-out: TCS50
Excerpt: as §1, with “culture. […]” for “culture.”
(§2) The cell suspensions that were prepared and diluted according to the particular cell type and the expected target cell density (2.500-30.000 cells per well based on cell growth characteristics) were added by pipette (80 µl) into 96/well microtiter plates. […] Usually, test compounds were evaluated at six 4-fold dilutions. […] The optical density (OD) was measured at 540nm with the Labsystem iEMS Reader MF (UK). […]

B16F = assay: MTT cytotoxicity assay, B16F; settings: mouse melanoma, metastatic, 72 hours, read-out: TCS50
Excerpt: as §1, with “culture. […]” for “culture.”
as §2

SW620 = assay: MTT cytotoxicity assay, SW620; settings: SW-620, SW620, human colon cancer, metastasis, 72 hours, read-out: TCS50
Excerpt: as §1, with “culture. […]” for “culture.”
as §2

U87MG = assay: MTT cytotoxicity assay, U87MG; settings: U-87 MG, human glioblastoma, 72 hours, read-out: TCS50
Excerpt: as §1, with “culture. […]” for “culture.”
as §2

HepG2 = assay: MTT cytotoxicity assay, HepG2; settings: HepG2, human hepatocellular carcinoma, 72 hours, read-out: TCS50
Excerpt: as §1, with “culture. […]” for “culture.”
as §2

A549 = assay: MTT cytotoxicity assay, A549; settings: A549, human lung adenocarcinoma, 72 hours, read-out: TCS50
Excerpt: as §1, with “culture. […]” for “culture.”
as §2

MCF-7 = assay: MTT cytotoxicity assay, MCF-7; settings: MCF7, MCF-7, human breast cancer, estrogen dependent, p53+/+, Rb +/+, 72 hours, read-out: TCS50
Excerpt: as §1, with “culture. […]” for “culture.”
as §2

U20S = assay: MTT cytotoxicity assay, U20S; settings: human osteosarcoma, p53+/-, Rb +/-, 72 hours, read-out: TCS50
Excerpt: as §1, with “culture. […]” for “culture.”
as §2

Saos2 = assay: MTT cytotoxicity assay, Saos2; settings: SAOS-2, Saos2, human osteosarcoma, p53-/-, Rb-/-, 72 hours, read-out: TCS50
Excerpt: as §1, with “culture. […]” for “culture.”
as §2

BT549 = assay: MTT cytotoxicity assay, BT549; settings: BT-549, BT549, human breast cancer, p53mut/mut, 72 hours, read-out: TCS50
Excerpt: as §1, with “culture. […]” for “culture.”
as §2

MDA-MB-238 = assay: MTT cytotoxicity assay, MDA-MB-238; settings: MDA-MB-238, human breast cancer, estrogen independent, p53mut/mut, 72 hours, read-out: TCS50
Excerpt: as §1, with “culture. […]” for “culture.”
as §2

LNCaP = assay: MTT cytotoxicity assay, LNCaP; settings: human prostate cancer, androgen dependent, 72 hours, read-out: TCS50
Excerpt: as §1, with “culture. […]” for “culture.”
as §2

DU145 = assay: MTT cytotoxicity assay, DU145; settings: DU-145, DU145, human prostate cancer, androgen independent, Rb-/-, 72 hours, read-out: TCS50
Excerpt: as §1, with “culture. […]” for “culture.”
as §2

HT-29 = assay: MTT cytotoxicity assay, HT-29; settings: HT-29, human colon cancer, 72 hours, read-out: TCS50
Excerpt: as §1, with “culture. […]” for “culture.”
as §2

OVCAR-3 = assay: MTT cytotoxicity assay, OVCAR-3; settings: OVCAR-3, human ovarian cancer, 72 hours, read-out: TCS50
Excerpt: as §1, with “culture. […]” for “culture.”
as §2

Caco-2 = assay: MTT cytotoxicity assay, Caco-2; settings: Caco-2, human colon cancer, 72 hours, read-out: TCS50
Excerpt: as §1, with “culture. […]” for “culture.”
as §2

MEL-3 = assay: MTT cytotoxicity assay, MEL-3; settings: MEL-3, human melanoma, 72 hours, read-out: TCS50
Excerpt: as §1, with “culture. […]” for “culture.”
as §2

human normal lymphocytes = assay: MTT cytotoxicity assay, normal lymphocytes; settings: Lymphocyte, human normal lymphocytes (non-malignant), 72 hours, read-out: TCS50
Excerpt: as §1, with “culture. […]” for “culture.”
as §2

NIH3T3 = assay: MTT cytotoxicity assay, NIH3T3; settings: NIH3T3, mouse immortalised fibroblasts (non-malignant), 72 hours, read-out: TCS50
Excerpt: as §1, with “culture. […]” for “culture.”
as §2

K562 = assay: MTT cytotoxicity assay, K562; settings: K562, human chronic myelogenous leukemia, 72 hours, read-out: TCS50
Excerpt: as §1, with “culture. […]” for “culture.”
as §2

K562-CdA = assay: MTT cytotoxicity assay, K562-CdA; settings: human chronic myelogenous leukemia, cladrubin resistant, 72 hours, read-out: TCS50
Excerpt: as §1, with “culture. […]” for “culture.”
as §2

K562-GEM = assay: MTT cytotoxicity assay, K562-GEM; settings: human chronic myelogenous leukemia, gemcitabin resistant, 72 hours, read-out: TCS50
Excerpt: as §1, with “culture. […]” for “culture.”
as §2

K562-ARA-C = assay: MTT cytotoxicity assay, K562-ARA-C; settings: human chronic myelogenous leukemia, cytarabin resistant, 72 hours, read-out: TCS50
Excerpt: as §1, with “culture. […]” for “culture.”
as §2

K562-FLUD = assay: MTT cytotoxicity assay, K562-FLUD; settings: human chronic myelogenous leukemia, fludarabin resistant, 72 hours, read-out: TCS50
Excerpt: as §1, with “culture. […]” for “culture.”
as §2

CEM-DNR 1/C2 = assay: MTT cytotoxicity assay, CEM-DNR 1/C2; settings: CEM-DNR 1/C2, human T-lymphoblastic leukemia, daunorubicin resistant, 72 hours, read-out: TCS50
Excerpt: as §1, with “culture. […]” for “culture.”
as §2

CEM-DNR bulk = assay: MTT cytotoxicity assay, CEM-DNR bulk; settings: human T-lymphoblastic leukemia, daunorubicin resistant, 72 hours, read-out: TCS50
Excerpt: as §1, with “culture. […]” for “culture.”
as §2

CEM-VCR 1/F3 = assay: MTT cytotoxicity assay, CEM-VCR 1/F3; settings: CEM-VCR 1/F3, human T-lymphoblastic leukemia, vincristin resistant, 72 hours, read-out: TCS50
Excerpt: as §1, with “culture. […]” for “culture.”
as §2

CEM-VCR 3/D5 = assay: MTT cytotoxicity assay, CEM-VCR 3/D5; settings: CEM-VCR 3/D5, human T-lymphoblastic leukemia, vincristin resistant, 72 hours, read-out: TCS50
Excerpt: as §1, with “culture. […]” for “culture.”
as §2

CEM-VCR bulk = assay: MTT cytotoxicity assay, CEM-VCR bulk; settings: human T-lymphoblastic leukemia, vincristin resistant, 72 hours, read-out: TCS50
Excerpt: as §1, with “culture. […]” for “culture.”
as §2

SMILES: CC1(C)CC[C@]23CC[C@]4(C)[C@H](CC[C@@H]5[C@@]6(C)CC(N=[N+]=[N-])C(=O)C(C)(C)[C@@H]6CC[C@]54C)[C@H]2[C@H]1OC3 (stereo partly drawn) [III.10, 2-azido-3-oxo-19β,28β-epoxy-18α-oleanan]
- IC50 (CEM): 13 µM

SMILES: CC1(C)CC[C@]23CC[C@]4(C)[C@H](CC[C@@H]5[C@@]6(C)CC(Br)C(=O)C(C)(C)[C@@H]6CC[C@]54C)[C@H]2[C@H]1OC3 (stereo partly drawn) [III.3, 2-brom-3-oxo-19β,28β-epoxy-18α-oleanan]
- IC50 (B16): 2.1 µM
- IC50 (B16F): 4.7 µM
- IC50 (SW620): 1.2 µM
- IC50 (U87MG): 5.1 µM
- IC50 (HepG2): 1.7 µM
- IC50 (A549): 1 µM
- IC50 (MCF-7): 2.3 µM
- IC50 (U20S): 1.5 µM
- IC50 (Saos2): 1.8 µM
- IC50 (BT549): 2 µM
- IC50 (MDA-MB-238): 1.4 µM
- IC50 (LNCaP): 1.1 µM
- IC50 (DU145): 0.8 µM
- IC50 (HT-29): 1.6 µM
- IC50 (OVCAR-3): 1 µM
- IC50 (Caco-2): 3 µM
- IC50 (MEL-3): 1.3 µM
- IC50 (human normal lymphocytes): 13 µM
- IC50 (NIH3T3): 7.2 µM
- IC50 (K562): 0.2 µM
- IC50 (K562-CdA): 0.3 µM
- IC50 (K562-GEM): 0.9 µM
- IC50 (K562-ARA-C): 0.6 µM
- IC50 (K562-FLUD): 0.4 µM
- IC50 (CEM): 1 µM
- IC50 (CEM-DNR 1/C2): 0.6 µM
- IC50 (CEM-DNR bulk): 1.1 µM
- IC50 (CEM-VCR 1/F3): 3.3 µM
- IC50 (CEM-VCR 3/D5): 2.9 µM
- IC50 (CEM-VCR bulk): 2.5 µM

SMILES: C=C(C)[C@@H]1CC[C@]2(C(=O)O)CC[C@]3(C)[C@H](CC[C@@H]4[C@@]5(C)CC[C@H](O)C(C)(C)[C@@H]5CC[C@]43C)[C@@H]12 [Betulinic Acid, betulinic acid, reference compound]
- IC50 (B16): 36 µM
- IC50 (B16F): 4.6 µM
- IC50 (SW620): 250 µM
- IC50 (U87MG): 250 µM
- IC50 (HepG2): 3.6 µM
- IC50 (A549): 236 µM
- IC50 (MCF-7): 194 µM
- IC50 (U20S): 250 µM
- IC50 (Saos2): 250 µM
- IC50 (BT549): 250 µM
- IC50 (MDA-MB-238): 195 µM
- IC50 (LNCaP): 244 µM
- IC50 (DU145): 241 µM
- IC50 (HT-29): 250 µM
- IC50 (OVCAR-3): 164 µM
- IC50 (Caco-2): 20 µM
- IC50 (MEL-3): 2.7 µM
- IC50 (human normal lymphocytes): 250 µM
- IC50 (NIH3T3): 250 µM
- IC50 (K562): 250 µM
- IC50 (K562-CdA): 250 µM
- IC50 (K562-ARA-C): 250 µM
- IC50 (K562-FLUD): 250 µM
- IC50 (CEM): 250 µM
- IC50 (CEM-DNR 1/C2): 250 µM
- IC50 (CEM-DNR bulk): 250 µM
- IC50 (CEM-VCR 1/F3): 19 µM
- IC50 (CEM-VCR 3/D5): 24 µM
- IC50 (CEM-VCR bulk): 69 µM

SMILES: CC1(C)CC[C@]23CC[C@]4(C)[C@H](CC[C@@H]5[C@@]6(C)CC(F)(F)C(=O)C(C)(C)[C@@H]6CC[C@]54C)[C@H]2[C@H]1OC3 [III.14, 19β,28β-epoxy-2,2-difluoro-18α-oleanan-3-one]
- IC50 (CEM): 170 µM
